The nature of data set [1]: in vivo. Particulars: rat, brain/plasma, po, 10 mg/kg.
Data set [2] can be described thus: in vivo. The following applies: rat, brain homogenate, po, 10 mg/kg.

The text below walks through data of ChEMBL document CHEMBL3797133, “Structure-Based Design of an Iminoheterocyclic β-Site Amyloid Precursor Protein Cleaving Enzyme (BACE) Inhibitor that Lowers Central Aβ in Nonhuman Primates” (J Med Chem, 2016).

In the case of `COc1nc(N2C[C@H]3C(=O)N(C)C(N)=N[C@@]3(c3c(F)ccc(F)c3F)C2)nc(C)c1F`, the Kp (as a rule, tissue or fluid exposure divided by exposure in the circulation) at 6 h in data set [1] worked out at 0.4. In data set [2], this compound gave a concentration at 6 h of 88 nM.
